Results as given in PMC10223284, “Category-Based Toxicokinetic Evaluations of Data-Poor Per- and Polyfluoroalkyl Substances (PFAS) using Gas Chromatography Coupled with Mass Spectrometry” (Toxics, 2023).
Several values for one entry are separate records, joined by “and”; a condition that tells them apart may be missing. Equal entries are not always repeated. Where two headings read alike, the source gives them in different places.

How the values were obtained:
[1] = test system: human plasma; experiment: Ultracentrifugation (UC) plasma protein binding assay, fraction unbound in plasma (fup); settings: for Aqueous Fraction, Run-specific Avg: run average; for fup: human plasma, 10 μM, ultracentrifugation, 37 °C; for Fup.Med: median fraction unbound in plasma; for Fup.Med / Fup.point: UC assay Level4; for Fup.point: point estimate of fraction unbound in plasma
[2] = test system: human plasma; experiment: Chemical stability in plasma over the UC assay time course (T5hr/T1hr); settings: for Time 1 hr, Run-specific Avg / Time 5 hr, Run-specific Avg: run average; for Stability (T5hr/ T1hr), Run-specific Avg: average of one UC run; for PPB_Stab_Fail: flag for stability failure in the plasma protein binding assay (1 = fail, 0 = pass); for Mean Stability: mean T5hr/T1hr ratio in plasma over all replicates/runs; for Fstable.Med: median fraction stable in plasma, UC assay Level4
[3] = Hepatic metabolic stability (hepatocyte clearance) assay, substrate depletion; assay type: in vitro ADME, human; settings: both sexes, human; for half-life at 1 μM: read-out: Linear Regression Results, Best-Fit Values, Half Life
Outline: (§1)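 Substrate depletion of 1 μM compound, 37 °C, with pooled human hepatocytes (50-donor, 50,000 cells/100 μL) in William's E; samples quenched in acetonitrile up to 240 min, triplicate time points. Intrinsic clearance (μL/min/million hepatocytes) and half-life derived from semi-log slope, background-adjusted using media-only and inactivated-cell controls; compounds with ≥50% abiotic loss at T120 excluded.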

[4] = test system: pooled human cryopreserved primary hepatocyte suspensions; experiment: as above; assay type: in vitro ADME; settings: for Linear Regression Results, Best-Fit Values, Slope: hepatocyte time course
Outline: as §1

[5] = In vitro-in vivo extrapolation (IVIVE) to Css and administered equivalent dose (AED); design: species or system human; settings: for Clhep: IVIVE, hepatocyte Clint scaled to whole-liver clearance; for AED: administered equivalent dose from LOEC and Css; for Fub: fub=fup/(B:P), Fub set to 1 if needed; for CLint: scaled with HPGL 110 mill cells/g, Vl 1596 g
Outline: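 Administered equivalent doses come from pairing modelled Css with literature in vitro LOECs. Css itself is predicted by IVIVE from experimental hepatic Clint, scaled up to whole-liver clearance in L/h, and experimental fraction unbound in plasma. That fraction was adjusted to unbound-in-blood via blood:plasma partitioning.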

[6] = test system: human primary cells; settings: cited from earlier work
[7] = Abiotic loss in negative controls of the hepatocyte clearance assay (cell-free media, metabolically inactivated hepatocytes); assay type: in vitro ADME; settings: for Hep_Stab_Fail: flag for stability failure in hepatocyte clearance assay controls (1 or Fst = fail, 0 = pass)
Outline: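 Abiotic stability was checked with media-only and inactivated-hepatocyte controls, run at T0 and T240 or, on rerun, at more time points. Compound at 1 μM, 37 °C, acetonitrile quench. Loss rates served for background subtraction, and ≥50% loss by T120 meant exclusion.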

[8] = amount measured in aqueous fraction after ultracentrifugation, unit not given
[9] = amount measured in plasma sample at 1 hr, unit not given
[10] = amount measured in plasma sample at 5 hr, unit not given
[11] = hepatocytes, background-subtracted, read-out: Bkgd-Sub Clearance (µL/min/106 hepatocytes)
[12] = hepatocytes, hepatocyte clearance, Conc 1000 nM, not background adjusted, read-out: Unadj Clint
[13] = hepatocytes, pooled human hepatocyte suspensions, 1 μM, read-out: In Vitro Clint
[14] = hepatocytes, unadjusted hepatocyte intrinsic clearance, read-out: Unadj in vitro Clint
[15] = hepatocytes, hepatocyte time course, NS = slope not significant, read-out: Linear Regression Results, Best-Fit Values, Clearance
[16] = hepatocytes, hepatocyte time course, NS = slope not significant
[17] = hepatocyte incubation, Rep 1-3, start conc 1000 nM
[18] = Assuming 1 mg/kg/day dose rate, BW 70 kg
[19] = human steady-state plasma concentration, assuming 1 mg/kg/day dosage
[20] = BioSeek lowest-observed effect concentration used for AED
[21] = minimum lowest-observed effect concentration, BioSeek platform

| SMILES | Aqueous Fraction, Run-specific Avg [1, 8] | fup [1] | Fup.Med [1] | Fup.point [1] | Time 1 hr, Run-specific Avg [2, 9] | Time 5 hr, Run-specific Avg [2, 10] | Stability (T5hr/ T1hr), Run-specific Avg [2] | PPB_Stab_Fail [2] | Mean Stability [2] | Fstable.Med [2] | hepatocyte CLint at 1 μM [3, 11] [µL/min/1e6 cells] | hepatocyte CLint at 1 μM [3, 12] [µL/min/1e6 cells] | hepatocyte CLint at 1 μM [3, 13] [µL/min/1e6 cells] | hepatocyte CLint at 1 μM [3, 14] [µL/min/1e6 cells] | hepatocyte CLint at 1 μM [3, 15] [µL/min/1e6 cells] | half-life at 1 μM [3, 16] [h] | Concentration (nM), Time 0 min [4, 17] | Concentration (nM), Time 15 min [4, 17] | Concentration (nM), Time 30 min [4, 17] | Concentration (nM), Time 60 min [4, 17] | other results |
| --- | --- | --- | --- | --- | --- | --- | --- | --- | --- | --- | --- | --- | --- | --- | --- | --- | --- | --- | --- | --- | --- |
| OCCC(F)(F)C(F)(F)C(F)(F)C(F)(F)F [4:2 Fluorotelomer alcohol] | 2164.31 | 0.1680 | 0.235 | 0.231 | 12824.02 | 9365.87 | 0.730 | 0 | 0.740 | 0.21 | 37.7 | 45.6 | 37.7 | 45.6 | 45.6 | 0.506 | 12113.7 nM and 7313.14 nM | 1692.86 nM and 1166.53 nM and 1804.74 nM | 339.856 nM and 404.508 nM and 458.803 nM | 47.9903 nM and 38.9317 nM and 58.7749 nM | Aqueous Fraction ([1]; amount measured in aqueous fraction after ultracentrifugation, replicates A, B, C, unit not given): 1744.82 and 3486.44 and 1261.67; Time 1 hr ([2]; amount measured in plasma sample at 1 hr, replicates A, B, C, unit not given): 13164.3 and 12271.8 and 13036; Time 5 hr ([2]; amount measured in plasma sample at 5 hr, replicates A, B, C, unit not given): 8478.66 and 10253.1 and 9709.96; hepatocyte CLint at 1 μM ([3]; s9, Bayesian analysis median, 1 μM assay concentration (Table S9), read-out: Clint.1.Med): 306 µL/min/1e6 cells; Concentration (nM), Time 120 min [4, 17]: 18.0283 nM and 18.9716 nM and 31.4203 nM; Concentration (nM), Time 240 min [4, 17]: 21.5215 nM and 17.4089 nM and 13.0166 nM; Linear Regression Results, Best-Fit Values, Slope [4]: -0.02281; Css [5, 18]: 0.0547 mg/L and 0.21 uM; Clhep [5]: 51.672 L/h; AED [5]: 9.6507 mg/kg/day; Fub [5]: 0.3055; Css [5, 19]: 0.21 µM; CLint [5]: 6620368 µL/min; LOEC [6, 20]: 2.00 µM; LOEC [6, 21]: 2 µM; half-life at 1 μM ([7]; buffer, no cells control, 0 vs 240 min, read-out: No Cells BkgdCl, Half Life): 2.92 h; Hep_Stab_Fail [7]: 0; No Cells BkgdCl, Slope ([7]; no cells control, 0 vs 240 min): -0.003956; Negative Controls, No cells (NC), concentration at 0 min ([7]; no cells, Rep 1-3): 10 µM; Negative Controls, No cells (NC), concentration at 240 min ([7]; no cells, Rep 1-3): 3870 nM |
| NC(=O)C(F)(F)C(F)(F)C(F)(F)F [Heptafluorobutyramide] | 5392.01 | 0.6030 | 0.566 | 0.601 | 9336.10 | 8817.96 | 0.945 | 0 | 0.963 | 0.999 | 19.9 | 19.9 | 19.9 | 19.9 | 19.9 | 1.16 | 988.297 nM and 784.776 nM and 618.66 nM | 550.618 nM and 957.096 nM and 714.95 nM | 499.471 nM and 561.118 nM and 588.537 nM | 417.033 nM and 313.668 nM and 348.927 nM | Mean Stability (T5hr/T1hr) ([2]; mean over all UC runs and replicates, human plasma): 0.963; hepatocyte CLint at 1 μM ([3]; hepatocytes, hepatocyte clearance, Conc 1000 nM, background adjusted, read-out: Bkgd Adj Clint): 19.9 µL/min/1e6 cells; hepatocyte CLint at 1 μM ([3]; hepatocytes, hepatocyte intrinsic clearance adjusted for background (abiotic) loss, read-out: Bkgd_adj_Clint): 19.9 µL/min/1e6 cells; Concentration (nM), Time 120 min [4, 17]: 201.833 nM and 266.362 nM and 226.765 nM; Linear Regression Results, Best-Fit Values, Slope [4]: -0.009975; Css [5, 18]: 0.0422 mg/L and 0.20 uM; Clhep [5]: 63.013 L/h; AED [5]: 101.0389 mg/kg/day; Fub [5]: 1; Css [5, 19]: 0.20 µM; CLint [5]: 3502422 µL/min; LOEC [6, 20]: 20.00 µM; LOEC [6, 21]: 20 µM; Hep_Stab_Fail [7]: 0; Negative Controls, No cells (NC), concentration at 240 min ([7]; no cells, Rep 1-3): 409.23 nM and 475.181 nM and 464.709 nM |
